The source of these data is patent publication US7314959B2, “Amino thiol compounds and compositions for use in conjunction with cancer therapy” (Wisconsin Alumni Research Foundation, priority 2003, dated 2008).

The subject of assay [1] is p21 protein in 23SK human skin cells. Kind of assay: p21 induction by western analysis. It is filed as cell-based. As to conditions: 23SK cells, 30 hr exposure. The method, then:
FIGS. 3A and 3B illustrate the level of induced p21 protein seen in diploid human fibroblasts after a 30 hr exposure to each of the indicated chemoprotective polyamines. […] In these experiments, the 23SK human skin cells were exposed for 30 hr to an “IC80” dose of each of the indicated chemoprotective polyamines and then lysed. Cell extracts were then prepared in order to measure p21 levels by western analysis (FIG. 3A).
FIG. 3 illustrates that chemoprotective polyamines are able to induce expression of the negative cell cycle regulatory protein, p21, after exposing the human skin cells to the polyamine molecules. […] In these experiments, the 23SK human skin cells were exposed for 30 hr to an “IC80” dose of each of the indicated chemoprotective polyamines and then lysed. Cell extracts were then prepared in order to measure p21 levels by western analysis (FIG. 3A). Although the ability of modified polyamines to induce p21 is known in the literature (Kramer, D. et al., Cancer Res. 59:1278-1286, 1999), it is a novel aspect of this invention that those chemoprotective polyamines with longer aliphatic “arms” were better able to induce expression of p21 as shown in FIG. 4.

The test system of a further assay is 23SK skin cells. Kind of assay: Flow cytometry cell cycle distribution. It is filed as cell-based, human. An excerpt: FIGS. 5A-5D are cell histograms showing the results from flow cytometry analysis of chemoprotective polyamine-treated 23SK skin cells.
In FIG. 5, cell histograms showing the results from flow cytometry analysis of chemoprotective polyamine-treated 23SK skin cells are shown. […] The transient nature of the cell cycle block induced by chemoprotective polyamines is believed to be an important aspect of their efficacy, i.e., their ability to block cell cycle progression in stem cells during the course of chemo- or radiotherapy, and the resumption of normal stem cell division after a given cancer therapy course has been completed.
Background: Flow cytometry measures light scatter and fluorescence of single cells or particles in a stream.

A further assay deals with DNA. Kind of assay: DNA binding/precipitation from solution. The text has this: The chemoprotective polyamines provided herein are also able to bind, denature and precipitate DNA from solution. As the skilled artisan will appreciate, as the concentration of polyamine is increased, there is a point where polyamine binding to helical B-DNA induces single-stranded ‘bubbles’ and conversion to other forms of DNA structure, such as Z-DNA (Feuerstein, B. et al., Nuc. Acids Res. 17:6883-6892, 1989; Basu, H. and Marton, L., Biochem. J. 244:243-246, 1987), as well as precipitating the DNA from solution.

A further assay deals with cell cycle. As to conditions: Jeitner and Renton 1996; Snyder and Grdina 2000; Kramer et al. 1997; cited from earlier work.
Assay [2] concerns primary, diploid fibroblasts isolated from human skin. Kind of assay: Growth inhibition of primary diploid human skin fibroblasts. It counts as cell-based. Conditions: 50% inhibition of human skin fibroblast growth. The method, then: The in vitro growth inhibitory effects of certain of the chemoprotective polyamines of the invention were measured using primary, diploid fibroblasts isolated from human skin.

The test system of assay [3] is radiation-induced dermatitis on backs of rats. Put plainly: Radiation-induced dermatitis in rat skin model. Conditions: for protective activity against radiation-induced dermatitis: 370 mM, vehicle 50:30:20, scored 13 days later. It is filed as in vivo. The method, then:
To determine efficacy of chemoprotective polyamines in preventing radiation-induced dermatitis, adult rats were topically treated with the compounds before and after radiation treatment. Rats were exposed to medically relevant levels of radiation that could induce clinical radiation dermatitis. Sprague Dawley rats (Harlan Spraque Dawley) at 4-6 weeks-old were anesthetized with sodium pentobarbital at 40 mg/kg body weight (Sigma, St. Louis, Mo.) prior to radiation exposure. A defined area (1.5×2 cm) on the backs of rats was irradiated using a Mark I, Model 30, Cs 137 irradiator (J. L. Sheppard & Associates). Before topical drug treatment or irradiation, the backs of the rats were clipped using an Oster clipper at the closest setting. The rest of the body was protected from radiation exposure using a lead shield (2.5 cm thick). A dose response study was initially performed to reproduce relevant dermatitis that matched the Grade (I-IV) scale used to score the severity of radiation-induced dermatitis in humans. The severity of the dermatitis was scored 12-13 days post-irradiation at the peak of the dermal inflammation. […] Radiation dermatitis of Grade II-III was considered most clinically relevant, so a radiation dose of 8.7 Gy was typically used in the rats. The clipped back region on the rats was treated topically with aminothiol in delivery vehicle four times in the two hours immediately preceding irradiation (at −2 hr, −1 hr, −30 min, and −10 min; irradiation was at 0 min
The polyamines or amino thiols were prepared in a delivery vehicle, consisting of ethanol:propylene glycol:water, ranging from 0:95:5 to 50:30:20 depending upon the solubility characteristics of the topical molecule, and the degree of dermal penetration desired. A vehicle composed of an emulsion formed by sonication of ‘nonionic liposomes’ and isopropyl myristate was also used (Jayaraman, S. et al., J. Pharm. Sci. 85:1082-1084, 1996). In a commonly used protocol, 220 μl of topical drug/vehicle was applied to an area ˜2 cm×3 cm on the back in the 2 hr just prior to irradiation. Rats treated with only the delivery vehicle served as controls. Twelve to thirteen days post-radiation, the rats were evaluated for dermatitis within the irradiated area. In early studies, a modified scoring scale described by Masuda K. et al., Int. J. Radiation Oncol. Biol. Phys: 12, 1645 (1986) was used, and in later studies, including those described here, a simplified scoring system was used in which the percentage of the irradiated, rectangular field covered with scrab material was estimated between 0 and 100% to provide scores on a scale between 0 and 100.
This example relates to the use of a rat skin model to evaluate the efficacy of two amino thiol compounds in preventing radiation-induced dermatitis. To test whether topically-applied aminothiols could prevent the radiodermatitis caused by external beam radiotherapy, the rodent model described in Example 3 was slightly modified. Briefly, the radiodermatitis model involved: • i) shaving the backs of 6-7 week old rats or mice; • ii) applying four topical doses of aminothiol in a delivery vehicle composed of ethanol:propylene glycol (PG):water in the 2 hr prior to irradiation; • iii) irradiating a small, 3 cm^2 (1.5×2 cm) area on the animal's back (through a window in a lead plate) with 8.7 Gy of γ radiation from a Cs^137 source; and • iv) scoring the severity of the dermatitis 12-13 days later, at the peak of the inflammatory skin reaction. Radiodermatitis severity was scored by estimating the percentage of the irradiated field that was covered by scrab material.
Methods: Treatments were applied as described in Example 6.

Where [4] appears, read: Expt. 1, read-out: DNA Bind/ppt. IC50 (uM), Expt. 1.
[5] abbreviates: Expt. 2, read-out: DNA Bind/ppt. IC50 (uM), Expt. 2.
Where [6] appears, read: Expt. 1, read-out: IC50 (uM), Expt. 1.
Setting [7] is: Expt. 2, read-out: IC50 (uM), Expt. 2.

Where two headings read alike, the source gives them in different places.

In the case of `CCNCCCCNCCCCNCCCCNCC=C(CS)CNCCCCNCCCCNCCCCNCC` [PrC-123], the “p21 fold-induction at IC80 Dose” value in assay [1] was 2.22 fold. In addition, in the assay with 23SK skin cells, the “Cell Cycle Distribution At IC80 Dose (%) G1” value is recorded as 68%, the “Cell Cycle Distribution At IC80 Dose (%) G2/M” value was 21% and the “Cell Cycle Distribution At IC80 Dose (%) S” value is on record as 10%. In addition, the IC50 at DNA (setting [4]) came out at 131 µM. Moreover, on DNA (setting [5]), the IC50 was found to be 117 µM.
Turning to `CCNCCCNCCCNCCCNCC` [DENSPM], in the assay on cell cycle, the “cell cycle arrest reported in literature” value was “G1-specific cell cycle block that was reversible”.
As to `CCNCCCCNC/C=C(/CS)CNCCCCNCC` [PrC-114], the IC50 in assay [2] (setting [6]) is 850 µM; in assay [2] (setting [7]), 240 µM; at DNA (setting [4]), 94 µM.
Take `NCC(CN)CS` [PrC-211, 3-amino-2-aminomethyl-propane-1-thiol]: the “Dermatitis Score (% of irradiated field free of scab material)” value in assay [3] (1400 mM PrC-211, vehicle 0:95:5 (ditto mark), cage 488) is 60 ± 12%. In addition, the “concentration of topical aminothiol alone conferring complete protection against radiodermatitis” value in assay [3] (aminothiol alone, without epinephrine, 8.7 Gy) was about 2200 mM.
With `CCNCCCCNCCCCNCC=C(CNC)CNCCCCNCCCCNCC` [PrC-119], the “p21 fold-induction at IC80 Dose” value in assay [1] turned out to be 1.80 fold. In addition, the IC50 stood at 470 µM in assay [2] (setting [6]), 202 µM in assay [2] (setting [7]) and 89 µM at DNA (setting [4]).
In the case of `CCNCCCCNCCCCNCCCCNC/C=C(/CS)CNCCCCNCCCCNCCCCNCC` [PrC-116], in assay [1], the “p21 fold-induction at IC80 Dose” value turned out to be 2.32 fold. The “Cell Cycle Distribution At IC80 Dose (%) G1” value in the assay with 23SK skin cells was determined as 66%. For the same molecule, the “Cell Cycle Distribution At IC80 Dose (%) G2/M” value in the assay on 23SK skin cells is 23%. Also, in the assay with 23SK skin cells, the “Cell Cycle Distribution At IC80 Dose (%) S” value is 11%. For the same molecule, the IC50 came out at 5.8 µM in assay [2] (setting [6]), 82 µM at DNA (setting [4]) and 63 µM at DNA (setting [5]).
For the molecule `CNCCCNC` [Mechanism Structure 2, reference compound], in assay [3] (8.7 Gy), the “protective activity against radiation-induced dermatitis” value was “neither molecule exhibited discernable protective activity”.
The same measure, in the same setting: with `CC(C)S` [Mechanism Structure 1, reference compound] the entry was “neither molecule exhibited discernable protective activity”.
For `NCCCNCCCCNCCCN` [Spermine, spermine, reference compound], the IC50 at DNA (setting [4]) came to 2600 µM. Also, the “IC50 for DNA binding/precipitation relative to most chemoprotective polyamines” value on DNA (spermine versus chemoprotective polyamines of Table 2) is ~1,000 fold.
On to `CCNCCCCNCCCCNCCCCNCCCCNCC=C(CNCC)CNCCCCNCCCCNCCCCNCCCCNCC` [PrC-113], for which, in assay [1], the “p21 fold-induction at IC80 Dose” value is recorded as 3.21 fold. Moreover, in the assay with 23SK skin cells, the “Cell Cycle Distribution At IC80 Dose (%) G1” value came to 77%, the “Cell Cycle Distribution At IC80 Dose (%) G2/M” value is recorded as 14% and the “Cell Cycle Distribution At IC80 Dose (%) S” value is 8%. Further, in assay [2] (setting [6]), the IC50 was determined as 0.33 µM. Moreover, the IC50 in assay [2] (setting [7]) stood at 0.21 µM. Further, the IC50 on DNA (setting [4]) was found to be 35 µM.
`CCNCCCCNCCCCNC/C=C(/CS)CNCCCCNCCCCNCC` [PrC-115]: the IC50 in assay [2] (setting [6]) was 4100 µM; in assay [2] (setting [7]), 1090 µM; at DNA (setting [4]), 37 µM; on DNA (setting [5]) it was 83 µM.
Consider `CCNCCCCNCCCCNCCCCNCCCCNC/C=C(/CS)CNCCCCNCCCCNCCCCNCCCCNCC` [PrC-117], for which the “p21 fold-induction at IC80 Dose” value in assay [1] is about 3.0 fold. For the same molecule, the “distribution within cell cycle compartments after drug removal” value with 23SK skin cells (72 hr treatment, then 48 hr in drug-free medium (FIG. 5D)) is given as “basically returned to that seen in cells previously untreated”. The “Cell Cycle Distribution At IC80 Dose (%) G1” value in the assay on 23SK skin cells is given as 86%. Moreover, in the assay with 23SK skin cells, the “Cell Cycle Distribution At IC80 Dose (%) G2/M” value turned out to be 3%. The “Cell Cycle Distribution At IC80 Dose (%) S” value in the assay with 23SK skin cells is reported as 11%. Moreover, the “cells in G1 compartment” value in the assay with 23SK skin cells (treated 72 hr (FIG. 5C)) amounted to 86.23%. Further, the “cells in S+G2 compartments” value in the assay on 23SK skin cells (treated 72 hr (FIG. 5C)) was determined as 13.77%. The IC50 was 0.32 µM in assay [2] (setting [6]), 0.24 µM in assay [2] (setting [7]), 58 µM at DNA (setting [4]) and 57 µM at DNA (setting [5]).
`CCNCCCCNCCCCNCC=C(CNCC)CNCCCCNCCCCNCC` [PrC-111]: the “p21 fold-induction at IC80 Dose” value in assay [1] is listed as 2.22 fold. For the same molecule, in the assay with 23SK skin cells, the “Cell Cycle Distribution At IC80 Dose (%) G1” value was determined as 60%. Moreover, the “Cell Cycle Distribution At IC80 Dose (%) G2/M” value with 23SK skin cells is reported as 14%. In the assay on 23SK skin cells, the “Cell Cycle Distribution At IC80 Dose (%) S” value is listed as 25%. For the same molecule, the IC50 in assay [2] (setting [6]) stood at 980 µM; in assay [2] (setting [7]) it was 180 µM; on DNA (setting [4]) it was 88 µM.
On to `CCNCCCCNCCCCNCCCCNCC=C(CNCC)CNCCCCNCCCCNCCCCNCC` [PrC-112], for which the “p21 fold-induction at IC80 Dose” value in assay [1] was 2.45 fold. In the assay on 23SK skin cells, the “Cell Cycle Distribution At IC80 Dose (%) G1” value is reported as 61%, the “Cell Cycle Distribution At IC80 Dose (%) G2/M” value amounted to 16% and the “Cell Cycle Distribution At IC80 Dose (%) S” value was 23%. For the same molecule, in assay [2] (setting [6]), the IC50 was 2.53 µM. On DNA (setting [4]), the IC50 was 93 µM.
With `CN[C@H]1CCc2cc(OC)c(OC)c(OC)c2-c2ccc(OC)c(=O)cc21` [Colcemid, reference compound], the “p21 fold-induction at IC80 Dose” value in assay [1] is 3.31 fold. Moreover, in the assay on 23SK skin cells, the “Cell Cycle Distribution At IC80 Dose (%) G1” value worked out at 8%, the “Cell Cycle Distribution At IC80 Dose (%) G2/M” value stood at 81% and the “Cell Cycle Distribution At IC80 Dose (%) S” value is 11%.
Take `CCNCCCCNCCCCNCC=C(CO)CNCCCCNCCCCNCC` [PrC-118]: the IC50 in assay [2] (setting [6]) came out at 78 µM.
